Data taken from patent US20090304692A1, “TRIAZINE COMPOUNDS AS PI3 KINASE AND MTOR INHIBITORS” (Wyeth, priority 2008, published 2009).
“And” between values parts separate entries of the source, which are not always exact repeats. Equal entries are not always repeated. Where two headings read alike, the source gives them in different places.

Key:
Human mTOR (FLAG-TOR) = Human mTOR (FLAG-TOR) (Homo sapiens, UniProt P42345); assay: mTOR kinase assay (DELFIA format, purified enzyme); format: biochemical; settings: read-out: IC50 mTOR
Human mTOR (FLAG-TOR), sequence (P42345 1360-2549 limits assumed): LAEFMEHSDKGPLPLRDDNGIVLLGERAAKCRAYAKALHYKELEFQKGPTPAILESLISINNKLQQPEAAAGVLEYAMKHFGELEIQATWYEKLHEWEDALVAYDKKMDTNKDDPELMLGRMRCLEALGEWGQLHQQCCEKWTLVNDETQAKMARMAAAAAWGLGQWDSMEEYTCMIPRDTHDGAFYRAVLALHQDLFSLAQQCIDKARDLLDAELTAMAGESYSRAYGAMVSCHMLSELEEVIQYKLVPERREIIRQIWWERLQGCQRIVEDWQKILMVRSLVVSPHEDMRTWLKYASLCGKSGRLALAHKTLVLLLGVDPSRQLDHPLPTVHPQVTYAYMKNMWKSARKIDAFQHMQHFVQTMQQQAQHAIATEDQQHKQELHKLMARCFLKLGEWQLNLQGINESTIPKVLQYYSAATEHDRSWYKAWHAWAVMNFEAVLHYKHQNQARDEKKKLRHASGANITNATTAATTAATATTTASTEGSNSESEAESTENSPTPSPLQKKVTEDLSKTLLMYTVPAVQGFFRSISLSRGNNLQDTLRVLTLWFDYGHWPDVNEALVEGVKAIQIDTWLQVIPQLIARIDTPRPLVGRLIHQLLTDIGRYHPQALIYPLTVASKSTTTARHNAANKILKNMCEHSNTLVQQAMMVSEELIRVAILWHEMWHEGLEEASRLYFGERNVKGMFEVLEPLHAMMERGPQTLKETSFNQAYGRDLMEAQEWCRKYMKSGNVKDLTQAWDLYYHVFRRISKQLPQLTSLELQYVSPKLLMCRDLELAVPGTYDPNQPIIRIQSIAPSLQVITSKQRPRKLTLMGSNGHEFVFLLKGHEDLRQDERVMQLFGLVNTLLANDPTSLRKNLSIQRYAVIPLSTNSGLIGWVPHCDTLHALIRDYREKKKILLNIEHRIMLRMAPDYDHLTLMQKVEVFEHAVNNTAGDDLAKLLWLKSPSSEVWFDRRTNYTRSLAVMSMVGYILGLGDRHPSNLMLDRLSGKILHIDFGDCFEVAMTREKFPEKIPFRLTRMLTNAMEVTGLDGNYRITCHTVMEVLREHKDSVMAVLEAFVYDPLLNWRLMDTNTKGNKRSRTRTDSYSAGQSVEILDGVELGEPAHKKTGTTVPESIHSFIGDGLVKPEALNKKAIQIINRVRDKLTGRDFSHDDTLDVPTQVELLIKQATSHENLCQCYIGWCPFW

PI3K-α = PI3K-α (Homo sapiens, UniProt P42336); assay: PI3K-alpha fluorescence polarization assay; settings: read-out: IC50 PI3Kα
PI3K-α, sequence (P42336 whole entry, species assumed): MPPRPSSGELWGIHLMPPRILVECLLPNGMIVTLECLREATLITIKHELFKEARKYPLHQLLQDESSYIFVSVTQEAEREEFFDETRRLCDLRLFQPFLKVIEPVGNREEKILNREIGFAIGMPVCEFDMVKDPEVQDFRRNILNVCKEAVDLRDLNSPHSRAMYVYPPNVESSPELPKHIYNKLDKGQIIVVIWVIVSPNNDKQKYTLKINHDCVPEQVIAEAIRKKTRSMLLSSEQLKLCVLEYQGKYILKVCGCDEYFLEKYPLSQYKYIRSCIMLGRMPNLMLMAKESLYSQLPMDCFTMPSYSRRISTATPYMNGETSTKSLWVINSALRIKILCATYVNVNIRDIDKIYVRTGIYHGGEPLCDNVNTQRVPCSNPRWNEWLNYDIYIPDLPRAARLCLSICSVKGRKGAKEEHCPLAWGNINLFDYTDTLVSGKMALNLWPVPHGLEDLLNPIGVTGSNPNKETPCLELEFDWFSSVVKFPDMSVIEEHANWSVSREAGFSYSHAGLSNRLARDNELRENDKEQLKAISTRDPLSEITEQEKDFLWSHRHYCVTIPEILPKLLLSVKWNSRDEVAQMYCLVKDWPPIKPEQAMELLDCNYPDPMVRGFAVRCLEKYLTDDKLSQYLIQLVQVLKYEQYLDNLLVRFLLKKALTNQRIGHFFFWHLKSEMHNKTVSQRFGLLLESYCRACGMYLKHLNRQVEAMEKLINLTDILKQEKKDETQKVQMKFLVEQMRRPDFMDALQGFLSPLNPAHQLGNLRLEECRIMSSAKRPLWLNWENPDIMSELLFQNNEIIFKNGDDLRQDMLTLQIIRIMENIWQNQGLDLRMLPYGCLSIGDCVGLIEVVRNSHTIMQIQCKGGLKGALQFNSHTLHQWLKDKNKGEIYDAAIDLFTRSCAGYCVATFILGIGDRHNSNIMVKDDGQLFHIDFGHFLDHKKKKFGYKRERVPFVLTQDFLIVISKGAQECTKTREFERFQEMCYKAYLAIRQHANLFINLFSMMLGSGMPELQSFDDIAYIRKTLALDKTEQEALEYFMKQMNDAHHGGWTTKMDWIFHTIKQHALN
PI3K-α, sequence (P27986 whole entry partner, species assumed): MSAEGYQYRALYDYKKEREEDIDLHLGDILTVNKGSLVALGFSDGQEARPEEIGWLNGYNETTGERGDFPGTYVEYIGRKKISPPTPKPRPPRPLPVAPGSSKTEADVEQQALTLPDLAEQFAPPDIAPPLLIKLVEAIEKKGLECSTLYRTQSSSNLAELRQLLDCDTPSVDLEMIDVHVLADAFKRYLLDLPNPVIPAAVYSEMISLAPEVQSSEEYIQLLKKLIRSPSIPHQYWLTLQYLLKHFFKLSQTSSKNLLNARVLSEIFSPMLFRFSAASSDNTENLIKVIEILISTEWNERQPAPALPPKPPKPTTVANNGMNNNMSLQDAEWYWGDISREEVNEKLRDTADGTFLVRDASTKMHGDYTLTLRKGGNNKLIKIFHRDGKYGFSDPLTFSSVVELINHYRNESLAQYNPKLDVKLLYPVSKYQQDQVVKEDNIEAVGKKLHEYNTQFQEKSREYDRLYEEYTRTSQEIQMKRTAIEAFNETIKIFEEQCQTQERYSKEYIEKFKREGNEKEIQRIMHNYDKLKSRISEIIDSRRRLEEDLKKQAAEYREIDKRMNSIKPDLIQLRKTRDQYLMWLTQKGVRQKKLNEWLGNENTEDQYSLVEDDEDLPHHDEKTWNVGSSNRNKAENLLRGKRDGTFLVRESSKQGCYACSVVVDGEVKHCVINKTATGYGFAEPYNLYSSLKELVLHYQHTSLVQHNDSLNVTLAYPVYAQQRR

PI3K-γ = PI3K-γ (Homo sapiens, UniProt P48736); assay: PI3K-gamma fluorescence polarization assay; settings: read-out: IC50 PI3Kγ
PI3K-γ, sequence (P48736 whole entry, species assumed): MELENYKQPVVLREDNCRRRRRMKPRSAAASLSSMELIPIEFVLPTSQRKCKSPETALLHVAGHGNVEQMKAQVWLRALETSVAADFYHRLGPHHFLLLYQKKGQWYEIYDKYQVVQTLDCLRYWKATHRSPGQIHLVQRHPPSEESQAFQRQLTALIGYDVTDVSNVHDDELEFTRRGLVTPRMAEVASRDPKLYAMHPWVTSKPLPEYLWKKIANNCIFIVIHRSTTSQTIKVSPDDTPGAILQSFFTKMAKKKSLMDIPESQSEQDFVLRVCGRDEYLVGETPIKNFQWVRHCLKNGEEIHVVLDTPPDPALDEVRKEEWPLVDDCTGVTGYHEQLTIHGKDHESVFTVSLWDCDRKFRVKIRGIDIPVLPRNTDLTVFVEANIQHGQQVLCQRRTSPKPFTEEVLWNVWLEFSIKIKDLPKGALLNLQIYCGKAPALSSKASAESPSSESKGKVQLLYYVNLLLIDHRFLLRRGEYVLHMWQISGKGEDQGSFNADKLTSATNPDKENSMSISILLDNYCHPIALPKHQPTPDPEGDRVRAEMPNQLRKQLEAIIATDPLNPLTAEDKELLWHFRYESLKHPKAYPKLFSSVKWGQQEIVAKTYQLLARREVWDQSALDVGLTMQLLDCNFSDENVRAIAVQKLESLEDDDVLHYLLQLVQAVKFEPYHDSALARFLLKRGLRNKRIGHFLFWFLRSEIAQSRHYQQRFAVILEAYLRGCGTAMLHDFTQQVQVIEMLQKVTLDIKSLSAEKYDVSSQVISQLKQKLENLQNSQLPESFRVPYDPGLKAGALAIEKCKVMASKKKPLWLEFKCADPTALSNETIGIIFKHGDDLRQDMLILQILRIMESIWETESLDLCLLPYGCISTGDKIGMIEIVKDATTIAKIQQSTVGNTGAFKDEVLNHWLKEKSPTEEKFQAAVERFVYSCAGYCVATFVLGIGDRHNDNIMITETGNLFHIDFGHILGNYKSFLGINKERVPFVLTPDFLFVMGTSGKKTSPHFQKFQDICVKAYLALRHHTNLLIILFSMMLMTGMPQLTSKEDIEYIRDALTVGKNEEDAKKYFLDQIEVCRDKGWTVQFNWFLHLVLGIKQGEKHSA

[1] = tested on: human prostate LNCap tumor cell line; assay: In vitro cell culture growth assay (MTS), LNCap; settings: read-out: IC50 LNCap

IC50 (Human mTOR (FLAG-TOR))	IC50 (PI3K-α) [nM]	IC50 (PI3K-γ) [nM]	IC50 ([1]; Homo sapiens, LNCaP, 72 h) [nM]	IC50 ([1]; MTS cell growth assay, three days after drug treatment) [nM]	IC50 (PI3K-α; listed as 335) [nM]	IC50 (PI3K-γ; listed as 335) [nM]	IC50 (PI3K-α; listed as 354) [nM]	IC50 (PI3K-γ; listed as 354) [nM]	IC50 (PI3K-α; listed as 358) [nM]	IC50 (PI3K-γ; listed as 358) [nM]	Compound	IC50 (PI3K-γ; listed as 717) [nM]
5.9 nM	561	8280	40								CC(C)Nc1nc(-c2ccc(NC(=O)Nc3ccc(C(=O)NN4CCCC4)cc3)cc2)nc(N2CC3CCC(C2)O3)n1 [Example 219, 4-{[(4-{4-[(1-methylethyl)amino]-6-(8-oxa-3-azabicyclo[3.2.1]oct-3-yl)-1,3,5-triazin-2-yl}phenyl)carbamoyl]amino}-N-pyrrolidin-1-ylbenzamide]	
3.5 nM	275	2830	40								CC(C)Nc1nc(-c2ccc(NC(=O)Nc3ccc(OCCN(C)C)cc3)cc2)nc(N2CC3CCC(C2)O3)n1 [Example 220, 1-{4-[2-(dimethylamino)ethoxy]phenyl}-3-(4-{4-[(1-methylethyl)amino]-6-(8-oxa-3-azabicyclo[3.2.1]oct-3-yl)-1,3,5-triazin-2-yl}phenyl)urea]	
2.7 nM	214	4280	120								CC(C)Nc1nc(-c2ccc(NC(=O)Nc3ccc(CO)cc3)cc2)nc(N2CC3CCC(C2)O3)n1 [Example 221, 1-[4-(hydroxymethyl)phenyl]-3-(4-{4-[(1-methylethyl)amino]-6-(8-oxa-3-azabicyclo[3.2.1]oct-3-yl)-1,3,5-triazin-2-yl}phenyl)urea]	
0.5 nM	152	572	10								CC(C)Nc1nc(-c2ccc(NC(=O)Nc3ccc(CCO)cc3)cc2)nc(N2CC3CCC(C2)O3)n1 [Example 222, 1-[4-(2-hydroxyethyl)phenyl]-3-(4-{4-[(1-methylethyl)amino]-6-(8-oxa-3-azabicyclo[3.2.1]oct-3-yl)-1,3,5-triazin-2-yl}phenyl)urea]	
2.3 nM	403	6170	60								COCCNc1nc(-c2ccc(NC(=O)Nc3cccnc3)cc2)nc(N2CC3CCC(C2)O3)n1 [Example 258, 1-(4-{4-[(2-methoxyethyl)amino]-6-(8-oxa-3-azabicyclo[3.2.1]oct-3-yl)-1,3,5-triazin-2-yl}phenyl)-3-pyridin-3-ylurea]	
2.4 nM	408	5410	580								C[C@@H](CO)Nc1nc(-c2ccc(NC(=O)Nc3cccnc3)cc2)nc(N2CC3CCC(C2)O3)n1 [Example 259, 1-{4-[4-{[(1S)-2-hydroxy-1-methylethyl]amino}-6-(8-oxa-3-azabicyclo[3.2.1]oct-3-yl)-1,3,5-triazin-2-yl]phenyl}-3-pyridin-3-ylurea]	
0.9 nM	417	4730	380								C[C@H](CO)Nc1nc(-c2ccc(NC(=O)Nc3cccnc3)cc2)nc(N2CC3CCC(C2)O3)n1 [Example 260, 1-{4-[4-{[(1R)-2-hydroxy-1-methylethyl]amino}-6-(8-oxa-3-azabicyclo[3.2.1]oct-3-yl)-1,3,5-triazin-2-yl]phenyl}-3-pyridin-3-ylurea]	
0.31 nM	158	2530	30								CC(C)(CO)Nc1nc(-c2ccc(NC(=O)Nc3cccnc3)cc2)nc(N2CC3CCC(C2)O3)n1 [Example 261, 1-(4-{4-[(2-hydroxy-1,1-dimethylethyl)amino]-6-(8-oxa-3-azabicyclo[3.2.1]oct-3-yl)-1,3,5-triazin-2-yl}phenyl)-3-pyridin-3-ylurea]	
0.29 nM	105	954	22								CC(C)(C)Nc1nc(-c2ccc(NC(=O)Nc3cccnc3)cc2)nc(N2CC3CCC(C2)O3)n1 [Example 262, 1-{4-[4-(tert-butylamino)-6-(8-oxa-3-azabicyclo[3.2.1]oct-3-yl)-1,3,5-triazin-2-yl]phenyl}-3-pyridin-3-ylurea]	
37 nM	1730	7490		100							O=C(Nc1ccc(-c2nc(N3C[C@@H]4C[C@H]3CO4)nc(N3C[C@@H]4C[C@H]3CO4)n2)cc1)Nc1ccc(N2CCNCC2)cc1 [Example 313, 1-{4-[4,6-di-(1S,4S)-2-oxa-5-azabicyclo[2.2.1]hept-5-yl-1,3,5-triazin-2-yl]phenyl}-3-(4-piperazin-1-ylphenyl)urea]	
5 nM and 5.8 nM	1100	7900	300								CN1CCN(c2ccc(Nc3nc(-c4ccc(NC(=O)NCCF)cc4)nc(N4CC5CCC(C4)O5)n3)cc2)CC1 [Example 315, 1-(2-fluoroethyl)-3-{4-[4-{[4-(4-methylpiperazin-1-yl)phenyl]amino}-6-(8-oxa-3-azabicyclo[3.2.1]oct-3-yl)-1,3,5-triazin-2-yl]phenyl}urea]	
71 nM and 11 nM	1410	2690	320								CN1CCN(c2ccc(Nc3nc(-c4ccc(NC(=O)NC5CC5)cc4)nc(N4CC5CCC(C4)O5)n3)cc2)CC1 [Example 316, 1-cyclopropyl-3-{4-[4-{[4-(4-methylpiperazin-1-yl)phenyl]amino}-6-(8-oxa-3-azabicyclo[3.2.1]oct-3-yl)-1,3,5-triazin-2-yl]phenyl}urea]	
4.4 nM and 4 nM	80	1450	220		81	144					CN1CCN(c2ccc(Nc3nc(-c4ccc(NC(=O)Nc5ccccc5)cc4)nc(N4CC5CCC(C4)O5)n3)cc2)CC1 [Example 319, 1-{4-[4-{[4-(4-methylpiperazin-1-yl)phenyl]amino}-6-(8-oxa-3-azabicyclo[3.2.1]oct-3-yl)-1,3,5-triazin-2-yl]phenyl}-3-phenylurea]	
4.6 nM	74	6240	310				69	6220			CNC(=O)Nc1ccc(-c2nc(Nc3ccc(N4CCNCC4)cc3)nc(N3CC4CCC(C3)O4)n2)cc1 [Example 325, 1-methyl-3-(4-{4-(8-oxa-3-azabicyclo[3.2.1]oct-3-yl)-6-[(4-piperazin-1-ylphenyl)amino]-1,3,5-triazin-2-yl}phenyl)urea]	
12.2 nM and 12 nM	830	6190	580								O=C(Nc1ccc(-c2nc(Nc3ccc(N4CCNCC4)cc3)nc(N3CC4CCC(C3)O4)n2)cc1)NC1CC1 [Example 326, 1-cyclopropyl-3-(4-{4-(8-oxa-3-azabicyclo[3.2.1]oct-3-yl)-6-[(4-piperazin-1-ylphenyl)amino]-1,3,5-triazin-2-yl}phenyl)urea]	
6.3 nM	394	5900	400								O=C(NCCF)Nc1ccc(-c2nc(Nc3ccc(N4CCNCC4)cc3)nc(N3CC4CCC(C3)O4)n2)cc1 [Example 327, 1-(2-fluoroethyl)-3-(4-{4-(8-oxa-3-azabicyclo[3.2.1]oct-3-yl)-6-[(4-piperazin-1-ylphenyl)amino]-1,3,5-triazin-2-yl}phenyl)urea]	
4.6 nM	261	14000	1500								O=C(NCCO)Nc1ccc(-c2nc(Nc3ccc(N4CCNCC4)cc3)nc(N3CC4CCC(C3)O4)n2)cc1 [Example 328, 1-(2-hydroxyethyl)-3-(4-{4-(8-oxa-3-azabicyclo[3.2.1]oct-3-yl)-6-[(4-piperazin-1-ylphenyl)amino]-1,3,5-triazin-2-yl}phenyl)urea]	
0.68 nM	9.5	385	5900						9	363	NC(=O)c1ccc(NC(=O)Nc2ccc(-c3nc(Nc4ccc(N5CCNCC5)cc4)nc(N4CC5CCC(C4)O5)n3)cc2)cc1 [Example 329, 4-{[(4-{4-(8-oxa-3-azabicyclo[3.2.1]oct-3-yl)-6-[(4-piperazin-1-ylphenyl)amino]-1,3,5-triazin-2-yl}phenyl)carbamoyl]amino}benzamide]	
3.3 nM and 3.4 nM	42	827	260								O=C(Nc1ccccc1)Nc1ccc(-c2nc(Nc3ccc(N4CCNCC4)cc3)nc(N3CC4CCC(C3)O4)n2)cc1 [Example 330, 1-(4-{4-(8-oxa-3-azabicyclo[3.2.1]oct-3-yl)-6-[(4-piperazin-1-ylphenyl)amino]-1,3,5-triazin-2-yl}phenyl)-3-phenylurea]	
0.24 nM	13.5	732	< 0.8								CN(C)CC(=O)Nc1ccc(NC(=O)Nc2ccc(-c3nc(N4CC5CCC(C4)O5)nc(N4CC5CCC(C4)O5)n3)cc2)cc1 [Example 352, N-[4-({[4-(4,6-di-8-oxa-3-azabicyclo[3.2.1]oct-3-yl-1,3,5-triazin-2-yl)phenyl]carbamoyl}amino)phenyl]-N2,N2-dimethylglycinnamide]	
0.22 nM	8.5	501	< 0.8								O=C(CN1CCCC1)Nc1ccc(NC(=O)Nc2ccc(-c3nc(N4CC5CCC(C4)O5)nc(N4CC5CCC(C4)O5)n3)cc2)cc1 [Example 353, N-[4-({[4-(4,6-di-8-oxa-3-azabicyclo[3.2.1]oct-3-yl-1,3,5-triazin-2-yl)phenyl]carbamoyl}amino)phenyl]-2-pyrrolidin-1-ylacetamide]	

Compound	IC50 (Human mTOR (FLAG-TOR))	IC50 (PI3K-α) [nM]	IC50 (PI3K-γ) [nM]	IC50 ([1]; Homo sapiens, LNCaP, 72 h) [nM]	IC50 ([1]; MTS cell growth assay, three days after drug treatment) [nM]	IC50 (PI3K-α; listed as 335) [nM]	IC50 (PI3K-γ; listed as 335) [nM]	IC50 (PI3K-α; listed as 354) [nM]	IC50 (PI3K-γ; listed as 354) [nM]	IC50 (PI3K-α; listed as 358) [nM]	IC50 (PI3K-γ; listed as 358) [nM]	IC50 (PI3K-γ; listed as 717) [nM]
O=C(Nc1ccncc1)Nc1ccc(-c2nc(N3C4CCC3COC4)nc(N3C4CCC3COC4)n2)cc1 [Example 224, 1-[4-(4,6-di-3-oxa-8-azabicyclo[3.2.1]oct-8-yl-1,3,5-triazin-2-yl)phenyl]-3-pyridin-4-ylurea]	0.4 nM and 0.395 nM	444	5870	< 0.8								5870
